These results are taken from PMC4829596 (Frontiers in Microbiology, 2016).

For one data set, the system named is Caco2 and HepG2 cells. In kind it is cell-based. Particulars: at the determined MIC concentrations; range over compounds and cell lines. How it is done: (§1) Cytotoxicity of the fungal extract and the identified compounds was determined measuring lactate dehydrogenase release using human intestinal epithelial (Caco2) and human hepatocytic (HepG2) cells. […] Cells were seeded into 96-well plates (5 × 10^4 cells per well) and incubated until a confluent cell layer had developed. After discarding of the media cells were incubated with 50 μl of media and 50 μl of fungal extract or compound (final concentration: PAA 2 × 10^6 μg/l, 4FP 2 × 10^6 μg/l, ICA 2 × 10^6 μg/l, IAA 2 × 10^5 μg/l, PLA 2 × 10^6 μg/l, cPM 2 × 10^6μg/l and cFP 2 × 10^6 μg/l) for 24 h at 37°C. […] LDH release was measured according to the manufacturer’s protocol (Sigma–Aldrich, USA).

Data set [1] deals with MRSA Staphylococcus (S.) aureus B335466. Description: Determination of MIC. In kind it is cell-based. Particulars: lowest concentration at which the inhibitory effect was detectable; MRSA 335. The procedure: (§2) Minimal inhibitory concentrations (MICs) of purified compounds and commercially available standards were assessed against S. aureus, C. albicans, P. aeruginosa, K. pneumoniae, E. coli, ESBL K. pneumoniae, ESBL E. coli and the two MRSA strains (B337919 and B335466). Stock solutions of 5 × 10^6 μg/l of p-hydroxybenzaldehyde, and phenyllactic acid were prepared using water. Stock solutions of 1 × 10^8 μg/l indole-3-carboxylic acid, PAA and indole-3-acetic acid were prepared using methanol and diluted with water (working solution of 5 × 10^6 μg/l). Stocks of 1 × 10^6 μg/l of cFP and cPM were dissolved in water. […] Methanol and water were used as control.

The subject of data set [2] is MRSA Staphylococcus (S.) aureus B337919. Description: Determination of MIC. In kind it is cell-based. Particulars: lowest concentration at which the inhibitory effect was detectable; MRSA 337. How it is done:
as §2

For another data set, the system named is C. albicans. Description: Determination of MIC. In kind it is cell-based, Candida albicans. Particulars: lowest concentration at which the inhibitory effect was detectable; C. albicans. How it is done: as §2
Data set [3] deals with Bacillus subtilis, S. aureus and Micrococcus luteus. Details: method as in Jayatilake et al., 1996; Thomas et al., 2010. Particulars: ref Jayatilake et al., 1996; Thomas et al., 2010; cited from earlier work.
For the next data set, the system named is ESBL K. pneumoniae. Description: Determination of MIC. In kind it is cell-based, Klebsiella pneumoniae. Particulars: lowest concentration at which the inhibitory effect was detectable; ESBL K. pneumoniae. How it is done:
as §2

The next data set relates to K. pneumoniae. Description: Determination of MIC. In kind it is cell-based, Klebsiella pneumoniae. Particulars: lowest concentration at which the inhibitory effect was detectable; K. pneumoniae. How it is done: as §2
In another data set the test system is Caco2 cells. Description: XTT assay, metabolic active cells. In kind it is cell-based, human. Particulars: compound 2mg/ml, XTT. How it is done: (§3) In parallel the % of metabolic cells was measured using the XTT [2,3-Bis-(2-methoxy-4-nitro-5-sulfophenyl)-2H-tetra zolium-5-carboxanilide] assay (Thermo Scientific). Briefly, after treatment with the fungal extract or the different compounds cells were incubated with XTT and phenanzine methosulfate (Thermo Scientific) for 2 h. Absorbance was measured at 450 nm and % of metabolic active cells was calculated versus the control sample (media). As controls we incubated the cells without fungal cultures or compound, and with VPA alone.
A general note: Formazan colour is commonly taken as a measure of viable cells.

The subject of a further data set is HepG2 cells. The data set can be described thus: XTT assay, metabolic active cells. Particulars: compound 2mg/ml. In kind it is cell-based, human. How it is done: as §3
In the next data set the test system is E. coli. The data set can be described thus: Determination of MIC. In kind it is cell-based, Escherichia coli. Particulars: lowest concentration at which the inhibitory effect was detectable; E. coli. The procedure: as §2
A further data set relates to ESBL E. coli. The data set can be described thus: Determination of MIC. In kind it is cell-based, Escherichia coli. Particulars: lowest concentration at which the inhibitory effect was detectable; ESBL E. coli. How it is done:
as §2

For the next data set, the system named is P. aeruginosa. Description: Determination of MIC. In kind it is cell-based, Pseudomonas aeruginosa. Particulars: lowest concentration at which the inhibitory effect was detectable. How it is done:
as §2

A further data set deals with S. aureus. Description: Determination of MIC. In kind it is cell-based, Staphylococcus aureus. Particulars: lowest concentration at which the inhibitory effect was detectable; S. aureus. The procedure: as §2
A further data set has as its system all tested organisms. Description: Determination of MIC, statements over all tested organisms. In kind it is cell-based. Particulars: against the tested microorganisms. The procedure: as §2
Data set [4] has as its system human intestinal epithelial (Caco2) cells. Description: Cytotoxicity assay, lactate dehydrogenase release. In kind it is cell-based. Particulars: compound 2mg/ml, 24 h, LDH. The procedure:
as §1

The subject of data set [5] is human hepatocytic (HepG2) cells. Description: Cytotoxicity assay, lactate dehydrogenase release. In kind it is cell-based. Particulars: compound 2mg/ml, 24 h, LDH. The procedure: as §1

On to `CSCCC1NC(=O)C2CCCN2C1=O` [cPM, cyclo-(L-proline-L-methionine)], for which the dead cells in the data set on Caco2 and HepG2 cells is listed as 3.99–8.61%. Further, the Inhibitory concentration in [1] came out at 2.5 g/L; in data set [2] it was 2.5 g/L; in the data set on C. albicans, 5 g/L; in the data set on ESBL K. pneumoniae it was 5 g/L; in the data set with K. pneumoniae, 5 g/L; in the data set with E. coli, 5 g/L. For the same molecule, the Inhibitory concentration with ESBL E. coli was found to be 5 g/L; in the data set with P. aeruginosa, 5 g/L; with S. aureus it was 2.5 g/L. The antimicrobial activity entry in data set [3] is given as “no antimicrobial activity”. Further, the “% of metabolic active Caco2 cells” value in the data set on Caco2 cells came out at 99.18%. For the same molecule, in the data set on HepG2 cells, the “% of metabolic active HepG2 cells” value is 107.47%. This molecule returned a growth inhibitory activity in the data set on all tested organisms of 2 g/L. In data set [4], the “% of living Caco2 cells” value was 4.77%. Besides, in data set [5], the “% of living HepG2 cells” value was 3.99%.
